Data: US20050124634A1, “1,4-dihydropyridine compounds, pharmaceutical compositions, and methods for the treatment of cardiovascular disease” (MYOGEN, INC., priority 2003, published 2005)
Like-named read-outs stand apart in the source and are kept apart here.

What was measured:
[1] = system: secretion of atrial natriuretic factor; assay: Anti-hypertrophic activity in NRVM, ANF ELISA (ANF secretion); format: cell-based, rat; settings: read-out: IC50 of the ANF ELISA (antihypertrophic activity)
Description: Anti-hypertrophic Activity of Racemic Compound 1 and Purified Enantiomers of Compound 1. Neonatal rat ventricular myocytes (NRVM) were isolated from 1 to 3 day-old Sprague-Dawley rats using enzymatic digestion and myocyte enrichment techniques. NRVM were cultured in serum-containing media for 18 hours. For the continuation of culture, serum-free media was used. Hypertrophy of NRVM was induced using pharmacological stimuli, including phenylephrine, endothelin-1, and […]. Hypertrophic responses were determined using methods including the following: measurement of total cellular protein; secretion of atrial natriuretic factor; determination of cell volume; determination of the expression of so-called fetal genes such as atrial natriuretic factor, beta-myosin heavy chain and alpha-skeletal actin. ANF secretion was the most sensitive assay for measuring hypertrophy, and the IC50 of the ANF ELISA was the measurement used to determine antihypertrophic activity.

α-MyHC protein = α-MyHC protein levels in NRVM by Western blotting; format: cell-based, rat; settings: NRVM stimulated 3 days; Compound 1 10 nM to 10 μM
Description: FIG. 2 Effect of Compound 1 on α-MyHC protein levels as detected by Western blotting. NRVM are stimulated with Compound 1 at different concentrations for 3 days. Protein extracts are prepared, proteins are separated by SDS-PAGE electrophoresis, transferred to PVDF membrane, and detected with an anti-α-MyHC monoclonal antibody.
As an independent measure of changes in α-MyHC protein levels, NRVM stimulated with Compound 1 were analyzed for α-MyHC protein levels by Western blotting. Protein extracts prepared from NRVM stimulated with a range of concentrations of Compound 1 from 10 nM to 10 μM were separated by SDS-PAGE and transferred to PVDF membrane. Levels of α-MyHC protein were detected by Western blotting using the same anti-α-MyHC monoclonal antibody used in the cytoblot assay. […] This experiment verified that the changes in α-MyHC protein detected in the cytoblot assay were also evident by Western blotting.

α-MyHC protein levels = assay: α-MyHC cytoblot assay in neonatal rat ventricular myocytes (NRVM); format: cell-based
Description: FIG. 1 Concentration-dependent effect of Compound 1 on α-MyHC protein levels in the cytoblot assay. NRVM are cultured for 3 days in serum-free medium in the presence of differing amounts of Compound 1. At the end of the culture period, NRVM are fixed and analyzed for α-MyHC protein levels using the BA-G5 monoclonal antibody specific for α-MyHC. Results are collected as RLU using a Packard Fusion Plate reader, and normalized to the signal from samples cultured in the absence of compound (control, set to 100%).
Preparation and culture of neonatal rat ventricular myocytes (NRVM) was performed by removing hearts from 1-3 day old rat neonatal pups, along with the atria and lungs. The ventricles were cut into smaller pieces and digested 3 times with collagenase for 20-30 min at 37° C. The myocytes were then separated from other cell types using a Percoll gradient. The myocyte layer was collected, washed 2 times, and plated on tissue culture grade 10 cm Petri dishes for 1-2 hrs. The non-adherent cells (myocytes) were removed and plated in Costar clear view 96 well plates coated with 0.2% gelatin for at least 2 hrs. The gelatin solution was removed, and the myocytes were resuspended in DMEM high glucose media (Mediatech) containing 10% charcoal/dextran treated FBS (Hyclone) and 1% Penicillin-Streptomycin-Glutamine (PSG, Gibco). Ten thousand NRVM were plated per well in a 100 μl volume, and incubated overnight at 37° C. in 5% CO2 in air. The following day, the media was replaced with 100 μl of serum-free DMEM high glucose medium supplemented with PSG and 0.3% Nutridoma-SP (Roche).
Compounds were reconstituted in DMSO at 30 mM, and aliquots were stored at −20° C. A 1:1000 dilution was prepared in serum-free DMEM medium supplemented with PSG and 0.3% Nutridoma, and sonicated for 5 min at room temperature. After sonication, additional 3 fold dilutions were prepared in the same medium. Diluted compound was then added to the NRVM cultures in a volume of 100 μl. A 100 mM thyroid hormone stock solution (T3, Calbiochem) was prepared in 100 mM NaOH and added at a final concentration of 3 nM in DMEM medium supplemented with PSG and 0.3% Nutridoma-SP (Roche). NRVM were cultured for 3 days before detection of α-myosin heavy chain (α-MyHC) protein levels in the cytoblot assay.
For the α-MyHC cytoblot assay, NRVM cultures were analyzed for α-MyHC protein levels after 3 days of incubation. NRVM were washed 2 times with PBS, fixed with methanol for 30 min at 4° C., and washed an additional 2 times with PBS. Blocking solution consisting of PBS with 1% bovine serum albumin (BSA, Fisher Biotech) was added for 1 hr at room temperature before addition of a saturating amount of supernatant containing an α-MyHC specific antibody for 60 min at room temperature (BA-G5 hybridoma, ATTC). Two washes were performed with PBS/1% BSA, and a 1:500 dilution of HRP-goat anti-mouse IgG (Southern Biotech) diluted in PBS/1% BSA was added for 60 min at room temperature. Excess antibody was removed with 3 PBS washes, and a chemiluminescent substrate was added (Pierce SuperSignal West Pico Chemiluminscent Substrate) for 5 min before quantitation on a Packard Fusion Plate Reader.
As shown above in Table 1, Compound 1 increased α-MyHC protein levels as determined by an α-MyHC cytoblot assay. Compound 1 was added to NRVM at concentration ranging from 3 nM to 30 μM. After 3 days of incubation with NRVM, α-MyHC protein levels were detected in the cytoblot assay and quantitated (FIG. 1). […] An increase in α-MyHC protein levels was first detected beginning at 30 nM, with a maximal response observed at 3 μM. In six independent experiments, the concentration of Compound 1 that gave a half-maximal response was on average 60 nM.

[2] = NRVM, 3 days, tested 3 nM to 30 μM
[3] = NRVM, hypertrophy induced by pharmacological stimuli
[4] = tested according to Example 1, read-out: MPE50 for increasing α-MyHC protein levels

SMILES	% increase of a-MyHC over baseline at 10 mM Cpd (α-MyHC protein levels; NRVM, 3 days) [%]	other results
CC(=O)C1=C(C)NC(SCC(=O)c2cccc([N+](=O)[O-])c2)=C(C#N)C1c1ccccc1Cl (racemic) [Compound 1]	206	IC50 ([1]; Rattus norvegicus): 427 nM; α-MyHC protein levels by Western blotting (α-MyHC protein): increasing amounts of α-MyHC protein were observed with increasing amounts of Compound 1; concentration at which an increase in α-MyHC protein levels was first detected (α-MyHC protein levels; [2]): 30 nM; concentration at which maximal response was observed (α-MyHC protein levels; [2]): 3 µM; EC50 (α-MyHC protein levels; Rattus norvegicus, Ventricular myocyte, 72 h, average of six independent experiments, NRVM, 3 days, read-out: concentration that gave a half-maximal response (α-MyHC protein levels)): 60 nM
CC(=O)C1=C(C)NC(SCC(=O)c2ccccc2)=C(C#N)C1c1ccccc1Cl (racemic) [Compound 26]	161	–
CC(=O)C1=C(C)NC(SCC(=O)c2cc(Cl)ccc2Cl)=C(C#N)C1c1ccccc1 (racemic) [Compound 27]	303	–
CC(=O)C1=C(C)NC(SCC(=O)c2ccc([N+](=O)[O-])cc2)=C(C#N)C1c1ccccc1 (racemic) [Compound 28]	125	–
CC(=O)C1=C(C)NC(SCC(=O)c2ccc(Cl)c(Cl)c2)=C(C#N)C1c1cccc([N+](=O)[O-])c1 (racemic) [Compound 29]	201	–
CC(=O)C1=C(C)NC(SCC(=O)c2cccc([N+](=O)[O-])c2)=C(C#N)C1c1cccs1 (racemic) [Compound 30]	156	–
CC(=O)C1=C(C)NC(SCC(=O)c2ccc(Cl)c(Cl)c2)=C(C#N)C1c1cccs1 (racemic) [Compound 31]	151	–
CC(=O)C1=C(C)NC(SCC(=O)c2ccc(Cl)cc2Cl)=C(C#N)C1c1cccs1 (racemic) [Compound 32]	45	–
CC(=O)C1=C(C)NC(SCC(=O)c2cc(Cl)ccc2Cl)=C(C#N)C1c1cccs1 (racemic) [Compound 33]	181	–
CC(=O)C1=C(C)NC(SCC(=O)c2ccc(Cl)cc2Cl)=C(C#N)C1c1ccco1 (racemic) [Compound 34]	97	–
CC(=O)C1=C(C)NC(SCC(=O)c2ccc(Cl)c(Cl)c2)=C(C#N)C1c1ccco1 (racemic) [Compound 35]	–	% increase of a-MyHC over baseline (at 3 µM) (α-MyHC protein levels; at 3 µM, NRVM, 3 days): 125 (at 3 mM) %
CC(=O)C1=C(C)NC(SCC(=O)c2ccc([N+](=O)[O-])cc2)=C(C#N)C1c1ccco1 (racemic) [Compound 36]	115	–
CC(=O)C1=C(C)NC(SCC(=O)c2cccc([N+](=O)[O-])c2)=C(C#N)C1c1ccccc1Cl (stereo not drawn) [R-enantiomer]	–	IC50 [1, 3]: 1100 nM; EC50 (α-MyHC protein levels; [4]): 790 nM
CC(=O)C1=C(C)NC(SCC(=O)c2cccc([N+](=O)[O-])c2)=C(C#N)C1c1ccccc1Cl (stereo not drawn) [S-enantiomer]	–	IC50 [1, 3]: 389 nM; EC50 (α-MyHC protein levels; [4]): > 32000 nM
